The text below walks through data of patent US8410139B2, “Prodrugs of a piperidinyl derivative as modulators of chemokine receptor activity” (Bristol-Myers Squibb Company, priority 2009, dated 2013).

Series [1] in a line: Solution stability assay (pH 1.0 and pH 7.4, 37° C.). The format is physicochemical. The following applies: conversion of the prodrug to compound 1, 37° C., read-out: Aq. Stability half-life (pH 1/7.4) Hrs (converted). The procedure:
Acetonitrile Stock Solution: Prepare an Acetonitrile Stock Solution of the prodrug by dissolving 1.5-2.0 mg of accurately weighted compound in 5.0 mL of acetonitrile in 5 mL volumetric flask.
pH 7.4 Buffer Working Solution: Prepare a pH 7.4 Buffer working Solution of drug by adding 1.5 mL of the Acetonitrile Stock Solution to 3.5 mL of stability buffer in a 20 mL scintillation vial, mix very well. Using a 3 mL syringe withdraw ˜3 mL of solution and filter using the Gelman 0.45 μm syringe filter into a clean 1.5 mL LC vial. This filtered solution will be used to evaluate the prodrug degradation throughout the course of the study. Target concentration: 90-120 μg/mL (70% Aqueous: 30% Acetonitrile)
pH 1.0 Acidic Working Solution: Prepare a pH1.0 Working Solution of drug by adding 1.5 mL of the Acetonitrile Stock Solution to 3.5 mL of stability buffer in a 20 mL scintillation vial, mix very well. Using a 3 mL syringe withdraw ˜3 mL of solution and filter using the Gelman 0.45 μm syringe filter into a clean 1.5 mL LC vial. This filtered solution will be used to evaluate the prodrug degradation throughout the course of the study. Target concentration: 90-120 μg/mL (70% Aqueous: 30% Acetonitrile)
Following the sample preparation procedure described above a single sample (n=1) is prepared for each pH condition. The samples were then placed in an HPLC autosampler maintained at 37° C. and samples were analyzed over a 24 hr period. Prodrug remaining (%) is reported relative to the initial peak area (t=0 h). In cases where a conversion to parent half-life could be calculated, a t1/2 was generated. Confirmation of the conversion to parent from the prodrug was obtained by LCMS and HPLC analysis of the final timepoint samples.
Typical LC parameters are shown below:
• HPLC System: HP1100 Series, Hewlett Packard., Heated autosampler • Analytical column. Synergi 4u Hydro C18, 4.6 mm×5.0 cm, Phenomenex • Column temperature: 40° C. • Autosampler temp: 37° C. • Flow rate: 1.0 mL/min • Injection Volume: 10 μL • Mobile Phase: A: Acetonitrile • B: 0.1% Phosphoric acid in water • Run Time: 14.0 minutes • Typical LCMS parameters are shown below: • LC-MS System: Surveyor HPLC system, ThermoFinnigan LCQ Deca XP Max (Ion trap) • Analytical column. Synergi 4u Hydro C18, 4.6 mm×5.0 cm, Phenomenex • Column temperature: 40° C. • Autosampler temp: 22° C. • Flow rate: 1.0 mL/min • Injection Volume: 5 […] • Mobile Phase: A: 95% Acetonitrile/5% 20 mM Ammonium Acetate • B: 5% Acetonitrile/95% 20 mM Ammonium Acetate • LCQ Parameters • Sheath Flow Rate: 81.64 • Aux/Sweep Flow Rate: 19.01 • Current (uA): 10.89 • Voltage (kV): 5.00 • Capillary©: 348.10 • Capillary Voltage (V): 30.44

Series [2] is described as follows: Thermodynamic equilibrium aqueous solubility assay. The series is classed as physicochemical. The following applies: aqueous solvent, thermodynamic from solid, read-out: Aq. sol., mg/mL (pH). On the procedure: Thermodynamic Equilibrium Aqueous Solubility Assay
The calibration standard is prepared by accurately weighing 0.5-0.7 mg of sample in 5 ml of methanol. If the material is not fully soluble in methanol, other solvents such as DMSO or mixed solvents will be used.
*The calibration standard is typically prepared fresh immediately before the start of the assay. A two-point calibration curve should be used to determine the concentration of the final solution. A serial dilution is performed on the standard solution.
The final saturated solution is prepared by adding 1.0 ml of the appropriate aqueous solvent to the remaining portion of material (˜1 mg/l ml) into a 1 dram vial. The solution is sonicated and vortexed for ˜30 seconds. The sample solution is placed on an orbiter that continually agitates the sample solutions for 15-24 hours at room temperature. The final saturated solution is then transferred to a 1.5 ml Eppendorf tube and centrifuged for ˜2 min. at 10000 rpms. The supernatant from the saturated solution is transferred to a glass HPLC vial without filtering since the 1.5 mL volume is insufficient to saturate a syringe filter. This sample preparation procedure nullifies the effects of non-specific binding to the filtering apparatus.
The standards and sample are analyzed by HPLC using either UV/Vis diode array or variable wavelength detection. Typical quantitation wavelengths are 210 or 254 nm; detection wavelength can be individually customized to optimize sensitivity. In addition to UV detection, mass spectrometry detection is recommended if available in order to confirm the identity of the HPLC-UV peak of interest.
Dilutions of aqueous test solutions are performed if HPLC-UV peak is beyond the linear portion of the standard calibration curve. Typical dilutions include 100 ul/900 ul (×10) or 500 ul/500 ul (2×), as required.
HPLC grade solvents are employed.

In brackets after ≈: the same amount, converted by molar mass. Read-outs that look alike come from different tables or passages of the source.

For the molecule `CC(C)[C@@H](NC(=O)NCC(C)(C)OC(=O)CS(=O)(=O)O)C(=O)N1CC[C@](O)(c2ccc(Cl)cc2)C(C)(C)C1` [Example 21], the half-life in series [1] (pH 1) and in series [1] (pH 7.4) was above 22 h each time. The solubility thermodynamic in series [2] (pH 7.4, aqueous buffer) was above 16 mg/mL.

In the case of `CC(C)[C@@H](NC(=O)NCC(C)(C)OC(=O)OCOC(=O)C1(N)CC1)C(=O)N1CC[C@](O)(c2ccc(Cl)cc2)C(C)(C)C1` [Example 14], the half-life in series [1] (pH 1) was 49 h; in series [1] (pH 7.4), 107 h. The solubility thermodynamic in series [2] (pH 7.4, aqueous buffer) came to 0.18 mg/mL (≈ 295 µM).

As to `CC(C)[C@@H](NC(=O)NCC(C)(C)OC(=O)OCOC(=O)CS(=O)(=O)O)C(=O)N1CC[C@](O)(c2ccc(Cl)cc2)C(C)(C)C1` [Example 34], the half-life is 47 h in series [1] (pH 1) and above 22 h in series [1] (pH 7.4). The solubility thermodynamic in series [2] (pH 6.5, aqueous buffer) was above 0.18 mg/mL.

As for `CC(C)[C@@H](NC(=O)NCC(C)(C)OC(=O)OCOC(=O)C(C)(C)N)C(=O)N1CC[C@](O)(c2ccc(Cl)cc2)C(C)(C)C1` [Example 13], the half-life was 10.1 h in series [1] (pH 1) and 0.25 h in series [1] (pH 7.4).

In the case of `CC(C)[C@@H](NC(=O)NCC(C)(C)OC(=O)CCCC(=O)O)C(=O)N1CC[C@](O)(c2ccc(Cl)cc2)C(C)(C)C1` [Example 20], the half-life in series [1] (pH 1) and in series [1] (pH 7.4) was above 22 h each time. In series [2] (pH 6.5, aqueous buffer), the solubility thermodynamic was 0.317 mg/mL (≈ 558 µM).

For `CC(C)[C@@H](N)C(=O)OCOC(=O)OC(C)(C)CNC(=O)N[C@@H](C(=O)N1CC[C@](O)(c2ccc(Cl)cc2)C(C)(C)C1)C(C)C` [Example 12], the half-life in series [1] (pH 1) was 82 h; in series [1] (pH 7.4), 0.3 h.

As to `CC(O)C(=O)OC(C)(C)CNC(=O)N[C@@H](C(=O)N1CC[C@](O)(c2ccc(Cl)cc2)C(C)(C)C1)C(C)C` (stereo partly shown) [Example 30], the results for the half-life in series [1] (pH 1) and in series [1] (pH 7.4) were 33 h and above 22 h, respectively. In addition, the solubility thermodynamic in series [2] (pH 6.5, aqueous buffer) worked out at 0.31 mg/mL (≈ 589 µM).

On to `CC(C)[C@@H](NC(=O)NCC(C)(C)OC(=O)C(N)CS(=O)(=O)O)C(=O)N1CC[C@](O)(c2ccc(Cl)cc2)C(C)(C)C1` (stereo partly shown) [Example 32], for which the half-life in series [1] (pH 1) and in series [1] (pH 7.4) was above 22 h in each case. For the same molecule, the solubility thermodynamic in series [2] (pH 6.5, aqueous buffer) was found to be 1.12 mg/mL (≈ 1850 µM).

In the case of `CC(C)[C@H](N)C(=O)OC(C)(C)CNC(=O)N[C@@H](C(=O)N1CC[C@](O)(c2ccc(Cl)cc2)C(C)(C)C1)C(C)C` [Example 3, (S)-1-(3-((R)-1-((S)-4-(4-chlorophenyl)-4-hydroxy-3,3-dimethylpiperidin-1-yl)-3-methyl-1-oxobutan-2-yl)ureido)-2-methylpropan-2-yl 2-amino-3-methylbutanoate], the half-life is 237 h in series [1] (pH 1) and above 22 h in series [1] (pH 7.4). In addition, the solubility thermodynamic in series [2] (pH 6.5, aqueous buffer) is above 0.6 mg/mL.

Turning to `CC(C)[C@@H](NC(=O)NCC(C)(C)OC(=O)OCS(=O)(=O)O)C(=O)N1CC[C@](O)(c2ccc(Cl)cc2)C(C)(C)C1` [Example 23], the half-life in series [1] (pH 1) is 25 h; in series [1] (pH 7.4) it was 23 h. Further, in series [2] (pH 6.5, aqueous buffer), the solubility thermodynamic was above 0.3 mg/mL.

As to `CC(=O)OC(C)(C)CNC(=O)N[C@@H](C(=O)N1CC[C@](O)(c2ccc(Cl)cc2)C(C)(C)C1)C(C)C` [Example 4, 1-(3-((R)-1-((S)-4-(4-chlorophenyl)-4-hydroxy-3,3-dimethylpiperidin-1-yl)-3-methyl-1-oxobutan-2-yl)ureido)-2-methylpropan-2-yl acetate], the half-life in series [1] (pH 1) was 29 h; in series [1] (pH 7.4) it was above 22 h. In series [2] (pH 6.5, aqueous buffer), the solubility thermodynamic was determined as 0.03 mg/mL.

Take `CC(O)COC(=O)OC(C)(C)CNC(=O)N[C@@H](C(=O)N1CC[C@](O)(c2ccc(Cl)cc2)C(C)(C)C1)C(C)C` (stereo partly shown) [Example 35]: the results for the half-life in series [1] (pH 1) and in series [1] (pH 7.4) were 100 h and 30.3 h, respectively. In series [2] (pH 6.5, aqueous buffer), the solubility thermodynamic is 0.18 mg/mL (≈ 324 µM).

As to `CCOC(=O)CCC(=O)OC(C)(C)CNC(=O)N[C@@H](C(=O)N1CC[C@](O)(c2ccc(Cl)cc2)C(C)(C)C1)C(C)C` [Example 17], the half-life in series [1] (pH 1) and in series [1] (pH 7.4) was above 22 h throughout. The solubility thermodynamic in series [2] (pH 7.4, aqueous buffer) is below 0.007 mg/mL.

For `CC(C)[C@@H](NC(=O)NCC(C)(C)OC(=O)CCS(=O)(=O)O)C(=O)N1CC[C@](O)(c2ccc(Cl)cc2)C(C)(C)C1` [Example 22], the half-life in series [1] (pH 1) was 44 h; in series [1] (pH 7.4), above 22 h. For the same molecule, the solubility thermodynamic in series [2] (pH 6.5, aqueous buffer) is above 7 mg/mL.

As to `CC(C)[C@@H](NC(=O)NCC(C)(C)OCOP(=O)(O)O)C(=O)N1CC[C@](O)(c2ccc(Cl)cc2)C(C)(C)C1` [Example 10], in series [1] (pH 1), the half-life is below 1 h.

`CC(=O)OCOC(=O)OC(C)(C)CNC(=O)N[C@@H](C(=O)N1CC[C@](O)(c2ccc(Cl)cc2)C(C)(C)C1)C(C)C` [Example 15]: the half-life in series [1] (pH 1) and in series [1] (pH 7.4) was above 22 h in each case. Besides, the solubility thermodynamic in series [2] (pH 7.4, aqueous buffer) was found to be 0.022 mg/mL (≈ 38.6 µM).

For `CC(COC(=O)OC(C)(C)CNC(=O)N[C@@H](C(=O)N1CC[C@](O)(c2ccc(Cl)cc2)C(C)(C)C1)C(C)C)OP(=O)(O)O` (stereo partly shown) [Example 36], the half-life is 97 h in series [1] (pH 1) and above 22 h in series [1] (pH 7.4). In series [2] (pH 6.5, aqueous buffer), the solubility thermodynamic was above 1.2 mg/mL.

With `CC(C)[C@@H](NC(=O)NCC(C)(C)O)C(=O)N1CC[C@](OCOC(=O)[C@@H](C)O)(c2ccc(Cl)cc2)C(C)(C)C1` [Example 25], the half-life is 16.6 h in series [1] (pH 1) and 73 h in series [1] (pH 7.4). The solubility thermodynamic in series [2] (pH 7.4, aqueous buffer) is above 0.32 mg/mL.

`CC(C)[C@@H](NC(=O)NCC(C)(C)OC(=O)OCCN1CCOCC1)C(=O)N1CC[C@](O)(c2ccc(Cl)cc2)C(C)(C)C1` [Example 7, 1-(3-((R)-1-((S)-4-(4-chlorophenyl)-4-hydroxy-3,3-dimethylpiperidin-1-yl)-3-methyl-1-oxobutan-2-yl)ureido)-2-methylpropan-2-yl 2-morpholinoethyl carbonate]: the figures for the half-life in series [1] (pH 1) and in series [1] (pH 7.4) were 85 h and 131 h, respectively. The solubility thermodynamic in series [2] (pH 6.5, aqueous buffer) is 0.34 mg/mL (≈ 556 µM).

As for `CC(O)C(=O)OCO[C@]1(c2ccc(Cl)cc2)CCN(C(=O)[C@H](NC(=O)NCC(C)(C)O)C(C)C)CC1(C)C` (stereo partly shown) [Example 27], the half-life in series [1] (pH 1) was 36 h; in series [1] (pH 7.4) it was above 22 h. Besides, the solubility thermodynamic in series [2] (pH 6.5, aqueous buffer) came out at 0.5 mg/mL (≈ 899 µM).

`CCC(O)CC(=O)OCOC(=O)OC(C)(C)CNC(=O)N[C@@H](C(=O)N1CC[C@](O)(c2ccc(Cl)cc2)C(C)(C)C1)C(C)C` (stereo partly shown) [Example 33]: the half-life in series [1] (pH 1) and in series [1] (pH 7.4) was above 22 h each time. For the same molecule, the solubility thermodynamic in series [2] (pH 6.5, aqueous buffer) was above 1.6 mg/mL.

Consider `CC(C)[C@@H](NC(=O)NCC(C)(C)OC(=O)OCOC(=O)Cc1ccc(OP(=O)(O)O)cc1)C(=O)N1CC[C@](O)(c2ccc(Cl)cc2)C(C)(C)C1` [Example 9], for which the half-life in series [1] (pH 1) is 25 h; in series [1] (pH 7.4), 72 h. In addition, in series [2] (pH 6.5, aqueous buffer), the solubility thermodynamic was 1.6 mg/mL (≈ 2160 µM).

Take `CC(C)[C@@H](NC(=O)NCC(C)(C)OC(=O)OCOP(=O)(O)O)C(=O)N1CC[C@](O)(c2ccc(Cl)cc2)C(C)(C)C1` [Example 11]: the values for the half-life in series [1] (pH 1) and in series [1] (pH 7.4) were 107 h and 0.3 h, respectively.
